These results are taken from patent US20240317689A1, “POTASSIUM CHANNEL MODULATOR, COMPOSITION AND APPLICATION” (NEUSHEN THERAPEUTICS (SHANGHAI) CO., LTD, priority 2021, published 2024).

Each structure is given as a SMILES string.

In series [1] the target is T1, KCNQ2/3 potassium ion channel (Homo sapiens, UniProt O43525+O43526).
T1 construct: expressed in transfected cells; host or cells: CHO cells (hKCNQ-CHO)
As to the kind of experiment: KCNQ2/3 potassium ion channel activation assay (whole-cell patch clamp, hKCNQ-CHO cells). Format: cell-based. The following applies: read-out: Enhancment % (current enhancement multiple); for activation at 0.05 µM: test concentration 0.05 μM; for activation at 3 µM: test concentration 3 μM. Put shortly: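 Whole-cell patch clamp at room temperature in hKCNQ-CHO cells, pH 7.4 bath and pipette solutions, DMSO <0.3%. Enhancement = (Itest − Icontrol)/Icontrol.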
(In general: In patch-clamp work, channel activity is measured electrically.)

In the next series the target is T2, KCNQ2/3 (Homo sapiens, UniProt O43525+O43526).
T2 construct: expressed in transfected cells; host or cells: CHO cells (hKCNQ-CHO)
The series is described as follows: Half-maximal activation voltage left shift assay (whole-cell patch clamp, hKCNQ-CHO cells). Format: cell-based. Here is the method: Example 65: Half-Maximal Activation Voltage Left Shift Assay
hKCNQ-CHO cells were cultured at 37° C. in a humidified environment of 5% CO2.
• a) Extracellular fluid (mM): NaCl 145, KCl 4, CaCl2 2, MgCl2 1, Glucose 10, HEPES 10. The pH value of the extracellular fluid was adjusted to 7.4 with NaOH, and the osmotic pressure was adjusted to about 295 mOsm. • b) Intracellular fluid (mM): KOH 31.25, KCl 120, EGTA 10, MgCl2 1.75, CaCl2 5.374, HEPES 10, Na-ATP 4. The pH value of the intracellular fluid was adjusted to 7.4 with HCl, and the osmotic pressure was adjusted to about 285 mOsm. • c) The extracellular fluid should be prepared once a week, and the intracellular fluid should be aliquoted and stored at −20° C. after preparation.
The model positive reference compound Retigabine (RTG) was dissolved with 100% DMSO and configured as a 10 mM working solution. The test compounds were dissolved with 100% DMSO and configured as a 10 mM working solution. The final concentration of DMSO in the test solution should be less than 0.3%.
Whole-cell patch clamp was performed at room temperature. The electrical signals recorded with the EPC 10 USB amplifier (HEKA Elektronik, Germany) were filtered by a 3 kHz low-pass filter, and finally recorded in PatchMaster 2×90.5 software (HEKA Elektronik, Germany). At this step, the quality control standard was that the cell high-resistance sealing was greater than 500 MOhms, and the detection current was greater than 0.4 nA.
The recording electrodes were pulled out and polished with a vertical puller (NARISHIGE PC-10, Japan) using a borosilicate glass capillary (GC150tF-10, Harvard Apparatus Co., UK). At this step, the quality control standard was that the electrode resistance was between 2 MΩ and 5 MΩ.
During the recording process of the whole-cell patch clamp, a continuous perfusion system (BT100-2J, LongerPump, China) was used to continuously perfuse the extracellular fluid. The perfusion system was installed on the stage of an upright microscope (FN-S2N, Nikon, Japan), and the perfusion head was manually positioned under the microscope.
The voltage command for detecting the amplitude of hKCNQ current was as follows: the cell was clamped from a potential of −80 mV, stepped to −120 mV, and then clamped continuously at increasing voltages of 10 mV per sweep until +60 mV, held for 1500 ms; and then the clamping voltage was lowered to −120 my and held for 500 ms; finally, the voltage returned to the clamping potential of −80 mV. The detection voltage command was repeated every 15,000 milliseconds, and the command was continuously executed during the compound test. The half-maximal voltage of the cell's hKCNQ was obtained by nonlinear fitting of the current amplitude at different clamping potentials (−120 mV to +60 mV).
Data analysis was performed using PatchMaster 2×90.5 software (HEKA Elektronik, Germany) and Excel 2013 (Microsoft, USA) software. For each cell's patch clamp recording, the half-maximal voltage (V½-test) of hKCNQ corresponding to the test compound concentration should be obtained. The left-shifted half-maximal voltage value ΔV½ (V1/2 Shift (mV)) was obtained by subtracting the half-maximal voltage of hKCNQ before compound action (V½-control) from V½-test.

The nature of series [2]: Blood-brain barrier permeability assay in mice (brain concentration after intragastric administration). Format: in vivo. The following applies: 5 mg/kg, brain tissue homogenate. Here is the method:
Administration Dosage of 5 mg/kg
The drug was prepared in proportion (solvent: 5% DMSO+5% Solutol+90% normal saline) to make a solution with a concentration of 0.5 mg/mL, and the mice were subjected to intragastric administration at 0.1 mL/10 g, with 3 mice per group in parallel.
After the mice were administered, the mice were anesthetized and perfused with normal saline through the heart, dissected to collect the brain tissue. The brain tissue was washed with normal saline, dried, weighed, and transferred to a 2 mL EP tube, added with normal saline according to brain tissue: normal saline=1:1 (g/mL). 3 steel balls were put in each tube on a tissue grinder, and the tissue mixture was homogenized at 60 HZ for 60 s, centrifuged at 15000 rpm at 4° C. for 10 minutes, and the supernatant was taken, which was the brain tissue homogenate.
The drug stock solution (0.5 mg/mL) was taken and diluted with acetonitrile to form standard curve working solutions with concentrations of 50, 100, 200, 500, 1000, 2000, 5000, 10000, and 20000 ng/mL, and quality control working solutions with concentrations of 100, 2000, and 10000 ng/mL. 47.5 μL of blank matrix was taken respectively, and 2.5 μL of standard curve working solution and 2.5 μL of quality control working solution were added thereto to prepare standard curve samples with concentrations of 2.5, 5, 10, 25, 50, 100, 250, 500, and 1000 ng/mL and quality control samples with concentrations of 5, 100, and 500 ng/mL. 200 μL of acetonitrile (containing the internal standard of 5 ng/mL of Loratadine) was added thereto respectively, subjected to vortex oscillation for 3 minutes, centrifuged at 15,000 rpm and 4° C. for 10 minutes, and the supernatant was taken and analyzed by LC-MS/MS to obtain a standard curve.
50 μL of brain tissue homogenate sample was taken, added with 200 μL of acetonitrile (containing the internal standard of 5 ng/mL of Loratadine), subjected to vortex oscillation for 3 minutes, centrifuged at 15,000 rpm and 4° C. for 10 minutes, and the supernatant was taken for LC-MS/MS analysis. The standard curve was combined with the analysis to obtain the corresponding concentrations in the brain.

Series [3] relates to MES-induced epilepsy in mice. As to the kind of experiment: MES mouse epilepsy model. Format: in vivo. Conditions: 5 mpk, electrical stimulation 30 minutes after administration. As to the method:
Example 67: MES Mouse Epilepsy Model
• 1. The mice (10 mice per group) were transferred to the operating room to adapt to the environment 30 minutes before the experiment. • 2. The mice were administered the test compounds or positive drug (Valproate) at a specific time point. 30 minutes after the administration of Valproate or 30 minutes after the administration of the test compounds, electrical stimulation was given with ear electrodes. The stimulation parameters were a square wave with a total duration of 0.8 seconds, a frequency of 50 Hz, and an amplitude of 50 mA with an interval of 10 msec. • 3. The number and duration of hind limb tonic extension of the animal within 1 minute after the completion of the electrical stimulation was recorded, and the possible death and time of death were also recorded. • 4. After administration, the possible side effects induced by the drug were observed and recorded, and the side effects are divided into four levels: • None: Normal • Mild sedation • Moderate sedation • Severe sedation

As to `Cc1cc(N2CCCc3cc(OC(C)C)ccc3C2)cc(C)c1NC(=O)CC(C)(C)C` [Compound 003, N-(4-(7-isopropoxy-1,3,4,5-tetrahydro-2H-benzo[c]azepin-2-yl)-2,6-dimethylphenyl)-3,3-dimethylbutanamide], the activation at 0.05 µM in series [1] was less than 50%. Further, in series [1], the activation at 3 µM lay within 50 to 100%. The “V1/2 Shift (mV)” value is −7.00 mV on KCNQ2/3 (test concentration 50 nM) and −36.06 mV at KCNQ2/3 (test concentration 300 nM). In addition, the “Concentrations in the brain” value in series [2] was determined as 127.5 ng/g. Also, the “Protection rate for tonic extension” value in series [3] is recorded as 100%.

Consider `CCC(C)Oc1ccc2c(c1)CCCN(c1cc(C)c(NC(=O)CC(C)(C)C)c(C)c1)C2` (stereo not drawn) [Compound 004, N-(4-(7-(sec-butoxy)-1,3,4,5-tetrahydro-2H-benzo[c]azepin-2-yl)-2,6-dimethylphenyl)-3,3-dimethylbutanamide], for which, in series [1], the activation at 0.05 µM was less than 50%. Moreover, the activation at 3 µM in series [1] is greater than 100%. In addition, the entries for the “V1/2 Shift (mV)” value on KCNQ2/3 (test concentration 50 nM) and on KCNQ2/3 (test concentration 300 nM) were −11.76 mV and −23.56 mV, respectively.

Consider `Cc1cc(N2CCCc3cc(OC(C)C(F)(F)F)ccc3C2)cc(C)c1NC(=O)CC(C)(C)C` (stereo not drawn) [Compound 008, N-(2,6-dimethyl-4-(7-((1,1,1-trifluoropropan-2-yl)oxy)-1,3,4,5-tetrahydro-2H-benzo[c]azepin-2-yl)phenyl)-3,3-dimethylbutanamide], for which, in series [1], the activation at 0.05 µM lay in the range of 50 to 100% and the activation at 3 µM is greater than 100%. Also, the “V1/2 Shift (mV)” value on KCNQ2/3 (test concentration 50 nM) is reported as −23.38 mV. The “V1/2 Shift (mV)” value on KCNQ2/3 (test concentration 300 nM) is on record as −47.60 mV. Also, the “Concentrations in the brain” value in series [2] came to 166.1 ng/g. The “Protection rate for tonic extension” value in series [3] worked out at 90%.

On to `Cc1cc(N2CCCc3cc(OC4CCCC4)ccc3C2)cc(C)c1NC(=O)CC(C)(C)C` [Compound 011, N-(4-(7-(cyclopentyloxy)-1,3,4,5-tetrahydro-2H-benzo[c]azepin-2-yl)-2,6-dimethylphenyl)-3,3-dimethylbutanamide], for which, in series [1], the activation at 0.05 µM is greater than 100% and the activation at 3 µM is greater than 100%. The “V1/2 Shift (mV)” value on KCNQ2/3 (test concentration 50 nM) was −2.92 mV. On KCNQ2/3 (test concentration 300 nM), the “V1/2 Shift (mV)” value is listed as −21.98 mV. Further, the “Protection rate for tonic extension” value in series [3] is on record as 90%.

In the case of `Cc1cc(N2CCCc3cc(O[C@H](C)C(F)(F)F)ccc3C2)cc(C)c1NC(=O)CC(C)(C)C` [Compound 032, (R)—N-(2,6-dimethyl-4-(7-((1,1,1-trifluoropropan-2-yl)oxy)-1,3,4,5-tetrahydro-2H-benzo[c]azepin-2-yl)phenyl)-3,3-dimethylbutanamide], in series [1], the activation at 0.05 µM lay in the range of 50 to 100% and the activation at 3 µM was greater than 100%. For the same compound, the “V1/2 Shift (mV)” value on KCNQ2/3 (test concentration 50 nM) is given as −17.59 mV. The “Protection rate for tonic extension” value in series [3] amounted to 100%.

With `Cc1cc(N2CCCc3cc(O[C@@H](C)C(F)(F)F)ccc3C2)cc(C)c1NC(=O)CC(C)(C)C` [Compound 033, (S)—N-(2,6-dimethyl-4-(7-((1,1,1-trifluoropropan-2-yl)oxy)-1,3,4,5-tetrahydro-2H-benzo[c]azepin-2-yl)phenyl)-3,3-dimethylbutanamide], in series [1], the activation at 3 µM was 50 to 100%. Moreover, the “V1/2 Shift (mV)” value at KCNQ2/3 (test concentration 50 nM) is −44.25 mV. Further, in series [3], the “Protection rate for tonic extension” value was 100%.

As to `Cc1cc(N2CCCc3cc(OC(C)C)c(F)cc3C2)cc(C)c1NC(=O)CC(C)(C)C` [Compound 035, N-(4-(8-fluoro-7-isopropoxy-1,3,4,5-tetrahydro-2H-benzo[c]azepin-2-yl)-2,6-dimethylphenyl)-3,3-dimethylbutanamide], in series [1], the activation at 0.05 µM lay in the range of 50 to 100% and the activation at 3 µM was greater than 100%. At KCNQ2/3 (test concentration 50 nM), the “V1/2 Shift (mV)” value is listed as −16.46 mV. For the same compound, the “Concentrations in the brain” value in series [2] came out at 257 ng/g. In series [3], the “Protection rate for tonic extension” value worked out at 100%.

As to `Cc1cc(N2CCc3cc(F)ccc3C2)cc(C)c1NC(=O)CC(C)(C)C` [Xen-1101, reference compound], the “V1/2 Shift (mV)” value is recorded as −5.48 mV on KCNQ2/3 (test concentration 50 nM) and −13.33 mV on KCNQ2/3 (test concentration 300 nM). Further, in series [2], the “Concentrations in the brain” value stood at 90.9 ng/g.
